Results: patent US20150044305A1, “[…] NITRIC OXIDE FOR TREATING RESPIRATORY DISEASES” (Advanced Inhalation Therapies (AIT) Ltd., priority 2012, published 2015)
Where two headings read alike, the source gives them in different places.

How the values were obtained:
[1] = tested on: human respiratory syncytial virus (rgRSV30); test: RSV plaque assay after 30 minutes exposure to 160 ppm gNO; type: cell-based; settings: single exposure of 30 minutes to 160 ppm gNO; for reduction of virus viability (factor): vs ambient air
Method: The efficacy of treating viral infection by respiratory syncytial virus by the methods presented herein was tested by exposure for 30 minutes of human respiratory syncytial virus (rgRSV30) to a gas mixture containing 160 ppm nitric oxide, using standard plaque assay as described hereinabove.
FIGS. 3A-D present the data obtained in the experiment using tissue culture samples harboring human rgRSV30, coupled to a green fluorescent protein, wherein the control experiment the samples were exposed to a ambient air (data not shown), and the tested samples having a starting viral level of 2000 PFU (FIG. 3A), 1000 PFU (FIG. 3B) and 500 PFU (FIG. 3C), were exposed to 160 ppm gNO for 30 minutes, whereas FIG. 3D presents a comparative bar plot comparing the control to test results.

[2] = Phase I open label safety study in healthy adults: adverse events and vital signs; type: in vivo, human
Description: 10 healthy adult volunteer subjects (5 males, 5 females), aged 20 to 62 years, were enrolled in the study after screening their medical history, a physical examination, pulmonary function tests and blood values. Exclusion criteria included individuals less than 19 years of age, pregnant females and unwilling to practice birth control during the study, diagnosed with pulmonary disease, epistaxis, hemoptysis, methemoglobinemia, organ transplant recipient or receiving antibiotic therapy.
(§1) After obtaining informed consent, treatment was initiated within 5 days of enrollment. Subjects were housed in a hospital ward and received 160 ppm gNO for 30 minutes every four hours (Q4 h), five times a day, for five consecutive days by inhalation. Subjects returned for follow-up evaluations 3, 7 and 21 days after the final gNO administration. Subject safety was determined by monitoring vital signs, methemoglobin levels, lung function, blood chemistry, hematology, prothrombin time, inflammatory cytokine/chemokines levels and endothelial activation.
Subjects were administered gNO through a modified disposable mouthpiece to maximize mixing. Inspiration was spontaneously initiated by the subject from a conventional intermittent positive pressure breathing respirator (Mark-7, Carefusion, USA) in fixed flow mode delivering 48 liters per minute (LPM). Flows of gas were verified with a calibrated mass flow meter (TSI, USA). Gaseous nitric oxide (gNO, obtained at INOmax, Ikaria, USA) at a concentration of 800 ppm delivered at a flow of 12 LPM was titrated into a distal delivery port on the mouth piece connected to the respirator during inspiratory phase only (pressure switch). The Mark 7 respirator was supplied by an air/oxygen blender (Bird Sentry, Carefusion, USA) set to deliver 26% oxygen.
Cardiovascular status was determined by monitoring heart rate, blood pressure, respiratory rate and temperature. Values were recorded prior to the start of each gNO administration, following a 5 minute rest. During treatments, vital signs (except temperature) were also performed 15 minutes after the start of the treatment and at the end of gNO administration and recorded. After the first treatment each day, vital signs were recorded at every 30 minutes until the start of the second gNO administration of the day.

[3] = Phase I safety study: serum nitrite/nitrate by Griess reagent; type: in vivo, human; settings: during the trial, 160 ppm gNO
Method: as §1
These parameters were measured continuously during every gNO administration course and for 3.5 hours after the first treatment of the day. Daily serum samples were collected and frozen at −80° C. and the serum […] level was measured using the Griess reagent.

[4] = Phase I safety study: hematology, clinical chemistry and coagulation; type: in vivo, human; settings: end of study; baseline 0.15; p=0.104
Method: as §1
Hematological assessment included a complete blood count and differentials (hemoglobin, hematocrit, red blood cell count, white blood cell count, white blood cell differential, and platelet count) were obtained in order to monitor blood chemistry, hematology and inflammation measurements. […] The effect of gNO on coagulation was determined by the prothrombin time (PT) and its derived measures of prothrombin ratio (PR) and international normalized ratio (INR). […] Plasma cytokine levels were assessed using the human inflammation cytokine bead array kit (BD Bioscience, Canada). Plasma levels of angiopoietin Ang-1 and Ang-2 were determined by ELISA (R&D Systems, USA).

S. aureus (Clinical) = settings: 200 ppm gNO, saline suspension; cited from earlier work
Group B Streptococci = settings: 200 ppm gNO, saline suspension; cited from earlier work
Mycobacterium = settings: 200 ppm gNO, saline suspension; cited from earlier work
[5] = tested on: all microorganisms tested; settings: 200 ppm gNO, cited from earlier work
S. aureus = settings: cited from earlier work
[6] = tested on: influenza A/victoria/H3N2; settings: 160 ppm exogenous gNO, virions or incubated cells, MDCK cell model; cited from earlier work
[7] = tested on: highly pathogenic Avian Influenza H7N3; settings: cited from earlier work
methemoglobin = settings: healthy humans, cited from earlier work
[8] = cited from earlier work
[9] = gNO concentrations below 200 ppm, 6 hours/day for 28 days, rats; cited from earlier work
[10] = continuous delivery of 80 ppm gNO; cited from earlier work
[11] = saline suspension, average over the bacteria of Table 1
[12] = levels of gNO greater than 120 ppm

[N]=O [gNO, nitric oxide]
viral viability ([1]; starting 500 PFU): substantially nullified
reduction of virus viability (factor) ([1]; starting 1000 PFU): ~10
reduction of virus viability (factor) ([1]; starting 2000 PFU): ~10
minor adverse events reported ([2]; 160 ppm gNO 30 minutes, five times a day, five days, 10 healthy adults): Three minor adverse events were reported
tolerability and adverse events ([2]; 160 ppm gNO 30 minutes, five times a day, five days, 10 healthy adults, 250 administrations): well tolerated and no significant adverse events were observed
vital signs ([2]; during and after 160 ppm gNO administration): remained within normal limits
blood pressure ([2]; during or after 160 ppm gNO administration): no drop in blood pressure
serum nitrite/nitrate levels vs baseline [3]: no significant differences
eosinophil cell numbers [4]: 0.19 giga/L
LD100 (S. aureus (Clinical)): 4 h
Latent Period (S. aureus (Clinical)): 3 h
−2.5 Log10 (hours) (S. aureus (Clinical)): 3.7 hours
LD100 (Group B Streptococci): 2 h
Latent Period (Group B Streptococci): 1 h
−2.5 Log10 (hours) (Group B Streptococci): 1.5 hours
LD100 (Mycobacterium): 10 h
Latent Period (Mycobacterium): 7 h
−2.5 Log10 (hours) (Mycobacterium): 9.2 hours
reduction in CFU/mL ([5]; every bacteria challenged): ≥ 3 log10 CFU/mL
LD100 (hours), Average [5, 11]: 4.77 h
Latent Period (hours), Average [5, 11]: 2.77 h
−2.5 Log10 (hours), Average [5, 11]: 3.82 hours
reduction of colony formation (S. aureus; [12]): greater than 90%
time required to achieve greater than 90% reduction of colony formation (S. aureus; [12]): 8 to 12 h
survival (downward bactericidal trend) (S. aureus; solid media, increasing gNO concentration up to 160 ppm, vs medical air): 5-10%
viral replication and infectivity [6]: reduced not only viral replication but also their infectivity
viral replication and infectivity [7]: reduced not only viral replication but also their infectivity
MetHb level (methemoglobin; inhalation of gNO at 128 ppm for 3 hours): > 5%
MetHb level (methemoglobin; inhalation of gNO at 512 ppm for 55 minutes): > 5%
mortality ([8]; 300 ppm gNO, groups of 10 rats, first 1-2 days): Six of the animals treated with 300 ppm gNO died
mortality ([8]; 400 ppm gNO, 6 continuous hours per day, rats): all of the animals died on the first day
mortality ([8]; 500 ppm gNO, 6 continuous hours per day, rats): all of the animals died on the first day
MetHb level ([8]; 500 ppm gNO, rats): 67 percents
mortality [9]: No deaths occurred
subjects with SpMet exceeding 7% [10]: 35%
